From patent US8962843B2, “1,3,4-oxadiazole and 1,3,4-thiadiazole beta-lactamase inhibitors” (priority 2012, dated 2015)
Counter-ions that a name gives are not always drawn.

What follows are molecules tested on bacterial strains that express the class D cephalosporinase OXA-15 (assay: Standard BLI potentiation MIC / synergy MIC assays, strains expressing OXA-15). Conditions: in combination with a β-lactam; comparator Avibactam (CCC).
Format: cell-based, E. coli
Description: (§1) The experimental protocol was performed according to Clinical and Laboratory Standards Institute (CLSI) guidelines with modifications as described below (CLSI guidelines can be derived from the CLSI document M07-A9 published in January 2012: “Methods for Dilution Antimicrobial Susceptibility Tests for Bacteria That Grow Aerobically; Approved Standard-Ninth Edition”).
(§2) To prepare for MIC testing, frozen glycerol stocks of clinical isolates (Klebsiella pneumoniae, Eschericia coli, Enterobacter spp, Citrobacter spp, or Pseudomonas aeruginosa) were used to streak for isolated colonies on rich, non-selective, tryptic soy agar containing 5% sheep's blood (TSAB). Frozen glycerol stocks of laboratory engineered, isogenic E. coli strains, which contain cloned β-lactamase expressing plasmids were used to streak for isolated colonies on rich, selective LB agar supplemented with 25 μg/mL tetracycline to maintain the plasmid. All strains were incubated at 37° C. for 18-24 hrs.
(§3) On the day of testing, primary cultures were started by scraping off 5-10 colonies from the TSAB plates containing clinical strains or the tetracycline supplemented LB plates containing engineered strains. The clinical strain material was suspended in ˜5 mL of cation adjusted Mueller Hinton Broth (CAMHB) in 14 mL culture tubes. The engineered strain material was suspended in CAMHB (supplemented with 25 μg/mL tetracycline) in 14 mL culture tubes. All strains were incubated at 37° C. with aeration (200 rpm) for ˜2 hrs until the optical density at 600 nm (OD600) was >0.1.
(§4) The two compound components of the assay were each diluted in CAMHB and added to the 96-well broth microdilution assay plates. 50 μL of the β-lactam was added to each well of the assay plate in 2-fold dilutions with final concentrations ranging from 128 to 0.13 μg/mL. 25 μL of the BLI compound was added to all wells in the broth microdilution plates at a final concentration of 4 μg/mL. Inoculum cultures were prepared by standardizing the primary cultures to OD600=0.1 and then adding 20 μL of the adjusted primary culture per 1 mL CAMHB for clinical strains or CAMHB (supplemented with tetracycline at 100 μg/mL) for engineered strains, so that the final inoculum density was ˜10^5 colony forming units per milliliter. Diluted inoculum cultures were used to inoculate 25 μl, per well in 96-well broth microdilution assay plates. The final volume of each well was 100 μL and contained a β-lactam at different concentrations, a BLlcompound at 4 μg/mL concentration, the bacterial culture at an OD600 of approximately 0.001 and when necessary tetracycline at 25 μg/mL.
(§5) Plates were incubated for 18-20 hours at 37° C. with aeration (200 rpm). Following incubation, growth was confirmed visually placing plates over a viewing apparatus (stand with a mirror underneath) and then OD600 was measured using a SpectraMax 340PC384 plate reader (Molecular Devices, Sunnyvale, Calif.). Growth was defined as turbidity that could be detected with the naked eye or achieving minimum OD600 of 0.1. MIC values were defined as the lowest concentration producing no visible turbidity.
(§6) The synergy MIC (sMIC) assay determines the concentration of the BLI required to potentiate the activity of a fixed concentration of a β-lactam antibiotic against β-lactamase producing bacterial strains. The experimental protocol was performed according to Clinical and Laboratory Standards Institute (CLSI) guidelines with modifications as described below (CLSI guidelines can be derived from the CLSI document M07-A9 published in January 2012: “Methods for Dilution Antimicrobial Susceptibility Tests for Bacteria That Grow Aerobically; Approved Standard-Ninth Edition”). […]

| Structure (SMILES) | activity against bacterial strains that express the class D cephalosporinase OXA-15, compared with Avibactam |
| --- | --- |
| N=C(N)NCCCc1nnc([C@@H]2CC[C@@H]3CN2C(=O)N3OS(=O)(=O)O)o1 [Compound 714, (2S,5R)-2-(5-(3-guanidinopropyl)-1,3,4-oxadiazol-2-yl)-7-oxo-1,6-diazabicyclo[3.2.1]octan-6-yl hydrogen sulfate] | more active than Avibactam |
| O=C1N2C[C@@H](CC[C@H]2c2nnc(N3CCNCC3)s2)N1OS(=O)(=O)O [Compound 797, (2S,5R)-7-oxo-2-(5-(piperazin-1-yl)-1,3,4-thiadiazol-2-yl)-1,6-diazabicyclo[3.2.1]octan-6-yl hydrogen sulfate] | more active than Avibactam |
| N=C(N)NCc1nnc([C@@H]2CC[C@@H]3CN2C(=O)N3OS(=O)(=O)O)o1 [Compound 704, (2S,5R)-2-(5-(guanidinomethyl)-1,3,4-oxadiazol-2-yl)-7-oxo-1,6-diazabicyclo[3.2.1]octan-6-yl hydrogen sulfate] | more active than Avibactam |
| N[C@H]1CC[C@H](c2nnc([C@@H]3CC[C@@H]4CN3C(=O)N4OS(=O)(=O)O)o2)CC1 [Compound 781, (2S,5R)-2-(5-((1r,4S)-4-aminocyclohexyl)-1,3,4-oxadiazol-2-yl)-7-oxo-1,6-diazabicyclo[3.2.1]octan-6-yl hydrogen sulfate] | more active than Avibactam |
| NCC(O)Cc1nnc([C@@H]2CC[C@@H]3CN2C(=O)N3OS(=O)(=O)O)o1 (stereo partly drawn) [Compound 733, (2S,5R)-2-(5-(3-amino-2-hydroxypropyl)-1,3,4-oxadiazol-2-yl)-7-oxo-1,6-diazabicyclo[3.2.1]octan-6-yl hydrogen sulfate] | more active than Avibactam |
| NCC(O)c1nnc([C@@H]2CC[C@@H]3CN2C(=O)N3OS(=O)(=O)O)o1 (stereo partly drawn) [Compound 715, (2S,5R)-2-(5-(2-amino-1-hydroxyethyl)-1,3,4-oxadiazol-2-yl)-7-oxo-1,6-diazabicyclo[3.2.1]octan-6-yl hydrogen sulfate] | more active than Avibactam |
| N=C(N)N[C@H]1C[C@H](c2nnc([C@@H]3CC[C@@H]4CN3C(=O)N4OS(=O)(=O)O)o2)C1 [Compound 748, (2S,5R)-2-(5-((1r,3S)-3-guanidinocyclobutyl)-1,3,4-oxadiazol-2-yl)-7-oxo-1,6-diazabicyclo[3.2.1]octan-6-yl hydrogen sulfate] | more active than Avibactam |
| N[C@H]1CC[C@@H](c2nnc([C@@H]3CC[C@@H]4CN3C(=O)N4OS(=O)(=O)O)o2)CC1 [Compound 780, (2S,5R)-2-(5-((1s,4R)-4-aminocyclohexyl)-1,3,4-oxadiazol-2-yl)-7-oxo-1,6-diazabicyclo[3.2.1]octan-6-yl hydrogen sulfate] | more active than Avibactam |
| O=C1N2C[C@@H](CC[C@H]2c2nnc(CCCN3CCNCC3)o2)N1OS(=O)(=O)O [Compound 792, (2S,5R)-7-oxo-2-(5-(3-(piperazin-1-yl)propyl)-1,3,4-oxadiazol-2-yl)-1,6-diazabicyclo[3.2.1]octan-6-yl hydrogen sulfate] | more active than Avibactam |

These molecules were tested on bacterial strains that express KPC β-lactamases (assay: Standard BLI potentiation MIC / synergy MIC assays, strains expressing KPC β-lactamases). Conditions: in combination with a β-lactam; comparator Avibactam.
Format: cell-based
Description: as §1, §2, §3, §4, §5, §6

| Structure (SMILES) | activity and/or spectrum of activity against bacterial strains that express KPC β-lactamases, compared with Avibactam |
| --- | --- |
| NC1CCN(CCc2nnc([C@@H]3CC[C@@H]4CN3C(=O)N4OS(=O)(=O)O)o2)CC1 [Compound 775, (2S,5R)-2-(5-(2-(4-aminopiperidin-1-ybethyl)-1,3,4-oxadiazol-2-yl)-7-oxo-1,6-diazabicyclo[3.2.1]octan-6-yl hydrogen sulfate] | more active than Avibactam for at least one, bacterial strain that expresses KPC β-lactamase and/or show a better spectrum of activity |
